Consider 7 compounds from US11072616B2, “Cyclic peptides targeting alpha-4-beta-7 integrin” (Zealand Pharma A/S, priority 2015, dated 2021).

One series deals with T1, CYP1A2 (Homo sapiens, UniProt P05177).
T1 sequence (P05177 1-516): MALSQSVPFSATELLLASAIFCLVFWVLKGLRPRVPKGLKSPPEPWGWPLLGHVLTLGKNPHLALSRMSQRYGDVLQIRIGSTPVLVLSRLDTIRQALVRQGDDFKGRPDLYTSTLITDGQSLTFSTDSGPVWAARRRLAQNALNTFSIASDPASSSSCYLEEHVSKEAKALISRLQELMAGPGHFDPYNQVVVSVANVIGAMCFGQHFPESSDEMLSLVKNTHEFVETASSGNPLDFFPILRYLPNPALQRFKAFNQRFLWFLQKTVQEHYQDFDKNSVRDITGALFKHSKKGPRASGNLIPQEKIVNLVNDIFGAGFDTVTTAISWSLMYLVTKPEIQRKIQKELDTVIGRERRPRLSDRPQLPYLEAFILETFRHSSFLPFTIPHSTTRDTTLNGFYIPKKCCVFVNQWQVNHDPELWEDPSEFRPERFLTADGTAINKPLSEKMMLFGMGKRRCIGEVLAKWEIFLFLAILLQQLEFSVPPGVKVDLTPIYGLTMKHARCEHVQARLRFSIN
Kind of series: in vitro. As to conditions: microsomes. The method, then:
(§1) Cytochrome P450 Inhibition Assay
(§2) Analyses were performed using standard LC/MS/MS protocols.

Another series has as its target CYP2D6 (Homo sapiens, UniProt P10635). The experiment in a line: in vitro. As to conditions: microsomes. The procedure: as §1, §2
The next series has as its target CYP2C9 (Homo sapiens, UniProt P11712). The experiment in a line: in vitro. As to conditions: microsomes. The method, then: as §1, §2
The next series addresses CYP3A4 (Homo sapiens, UniProt P08684). The experiment in a line: in vitro. As to conditions: microsomes. The method, then:
as §1, §2

The test system of series [1] is integrin alpha-4-beta-7-expressing T lymphocytes. The experiment in a line: In vivo T lymphocyte trafficking analyses in DSS-treated mice (single dose). More on the design: species or system C57Bl/6 mice. As to conditions: 5-6 h. The procedure: In Vivo T Lymphocyte Trafficking Analyses
Animals. Female C57131/6 mice (Charles River, St-Constant, Qc), weighting 16-19 g at delivery were used for this study. Following arrival in the animal facility, all animals were subjected to a general health evaluation. An acclimation period of 7-14 days was allowed before the beginning of the study.
Administration of DSS. Dextran sulfate sodium (DSS) was administered to C57Bl/6 mice through addition to their drinking water at 2-3%. Mice accessed the DSS-treated water ad libitum over a 5-day period. Body weight and disease activity index (“DAI”) were measured on Day 5 in order to distribute DSS-treated animals in two uniform groups prior to dosing. Specific symptoms associated with colitis were scored based on the severity of each particular symptoms: 1—blood in stool (negative hemoccult, positive hemoccult, blood traces in stool visible, rectal bleeding); 2—stool consistency (normal, soft but still formed, very soft, diarrhea); 3—posture and fur (normal; ruffled fur; ruffled fur combined to slight hunched posture and slight dehydration; ruffled fur combined to hunched posture, dehydration and altered walking; moribund (euthanasia is mandatory before the animal reach this point). The overall DAI score was the sum of the three parameters (maximum score of 9). DAI assessment was performed on Day 5 only (prior to dosing). […]

The conditions of series [2]: in vivo.
Method: In Vivo Pharmacokinetic Assessments in Rodents
Oral bioavailability of test compounds was conducted by assessing plasma exposure of following one or two oral doses in mice and, in some cases, comparing said plasma exposure with that following a single intravenous dose of the same compound.
Body weights were recorded on the day of dosing.
Dosing: The formulation containing the test compound were administered p.o. by gavage with disposable feeding needles.
Sample processing/storage: All blood samples were transferred into K2EDTA tubes on wet ice and centrifuged within 5 min (3200×g for 5 min at 4° C.) to obtain plasma. Samples were stored frozen at −80° C. until bioanalysis.
Instrumentation: AB Sciex API 4000 Q-TRAP MS/MS system equipped with an Agilent LC system with a binary pump, a solvent degasser, a thermostatted column compartment, a CTC autosampler and a divert valve installed between the column and mass spectrometer inlet.
Series [3] is described as follows: Plasma protein binding, equilibrium dialysis, mouse plasma. The settings on record: for fraction unbound at 5 h, 1 microM: 50% plasma.
Method: (§3) An equilibrium dialysis (HTDialysis) method was used employing 50% plasma collected from CD-1 mice or Sprague-Dawley rats and incubated with K2EDTA. Test articles were assessed at 1 microM concentration in three replicates. Incubation time as 5 hours and plasma and buffer standards were assessed using LC/MS/MS. Percentage recovery was calculated as (Cbuffer+Cplasma)/[average]Cinitial, [average]Cinitial being measured in triplicate from the test samples prior to dialysis. Percentage of compound unbound was calculated as Cbuffer/Cplasma.
Series [4] is described as follows: Plasma protein binding, equilibrium dialysis, rat plasma. As to conditions: for fraction unbound at 5 h, 1 microM: 50% plasma; for % recovery: rat plasma dialysis. A general note: In equilibrium dialysis free small molecules cross a membrane that holds back macromolecules.
Method: as §3
Assay in series [5]: not given
The source holds these as a separate data set.

Each structure is given as a SMILES string.

Chain of CYP2D6 (P10635 whole entry): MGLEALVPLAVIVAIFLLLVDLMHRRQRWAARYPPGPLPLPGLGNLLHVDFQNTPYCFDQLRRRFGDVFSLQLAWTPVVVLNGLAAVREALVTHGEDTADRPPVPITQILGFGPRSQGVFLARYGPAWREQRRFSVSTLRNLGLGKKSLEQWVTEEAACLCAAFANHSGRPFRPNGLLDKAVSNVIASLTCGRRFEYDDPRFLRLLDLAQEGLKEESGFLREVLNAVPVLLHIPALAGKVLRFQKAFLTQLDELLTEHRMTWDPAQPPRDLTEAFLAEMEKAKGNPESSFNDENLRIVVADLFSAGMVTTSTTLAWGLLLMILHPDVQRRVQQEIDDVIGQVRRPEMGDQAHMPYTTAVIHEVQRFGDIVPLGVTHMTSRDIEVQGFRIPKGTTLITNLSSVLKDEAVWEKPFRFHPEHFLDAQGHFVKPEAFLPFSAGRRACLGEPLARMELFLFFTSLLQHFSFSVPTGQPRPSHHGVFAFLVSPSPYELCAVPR
Chain of CYP3A4 (P08684 whole entry): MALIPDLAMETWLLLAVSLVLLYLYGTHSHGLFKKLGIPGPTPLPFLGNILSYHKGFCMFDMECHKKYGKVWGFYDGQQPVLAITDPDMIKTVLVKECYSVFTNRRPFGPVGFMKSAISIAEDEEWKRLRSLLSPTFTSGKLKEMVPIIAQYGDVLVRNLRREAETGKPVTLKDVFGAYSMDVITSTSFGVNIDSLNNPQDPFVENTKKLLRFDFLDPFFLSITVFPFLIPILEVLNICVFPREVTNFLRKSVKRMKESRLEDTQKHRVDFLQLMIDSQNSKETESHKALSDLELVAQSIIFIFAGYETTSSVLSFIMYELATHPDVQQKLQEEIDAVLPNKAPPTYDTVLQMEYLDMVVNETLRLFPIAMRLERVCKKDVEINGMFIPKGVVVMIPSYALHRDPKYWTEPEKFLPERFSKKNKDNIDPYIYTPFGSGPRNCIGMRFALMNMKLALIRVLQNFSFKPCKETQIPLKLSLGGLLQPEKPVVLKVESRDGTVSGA
Chain of CYP2C9 (P11712 whole entry): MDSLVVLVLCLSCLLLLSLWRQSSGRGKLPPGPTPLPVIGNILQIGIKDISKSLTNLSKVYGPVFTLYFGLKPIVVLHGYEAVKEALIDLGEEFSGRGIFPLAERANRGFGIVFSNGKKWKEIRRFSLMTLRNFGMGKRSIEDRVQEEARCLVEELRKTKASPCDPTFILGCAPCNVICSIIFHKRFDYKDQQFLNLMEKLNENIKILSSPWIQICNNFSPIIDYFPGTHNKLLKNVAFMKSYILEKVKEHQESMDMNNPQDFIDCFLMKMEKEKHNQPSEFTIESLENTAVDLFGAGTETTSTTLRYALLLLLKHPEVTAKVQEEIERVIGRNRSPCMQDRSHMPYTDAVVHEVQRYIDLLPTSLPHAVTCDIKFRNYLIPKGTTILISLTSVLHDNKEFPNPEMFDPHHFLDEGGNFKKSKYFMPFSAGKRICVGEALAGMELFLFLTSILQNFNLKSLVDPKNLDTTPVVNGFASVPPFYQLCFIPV

With `CC[C@H](C)[C@@H]1NC(=O)[C@H](CCO)NC(=O)[C@H](CC(C)C)NC(=O)[C@H](Cc2ccc3ccccc3c2)NC(=O)[C@@H]2CCCN2[C@H](C(=O)NC(C)(C)C)[C@H](C)NC1=O` [ET01842-01], the IC50 was greater than 15 µM against CYP1A2 (human), greater than 15 µM at CYP2D6 (human), greater than 15 µM against CYP2C9 (human) and 0.89 µM at CYP3A4 (human).
With `CC(C)C[C@@H]1NC(=O)CN(C)C(=O)[C@H](Cc2ccc(O)cc2)NC(=O)[C@@H]2CCCN2[C@H](C(=O)NC(C)(C)C)[C@H](C)NC(=O)[C@H]([C@@H](C)O)NC(=O)[C@H](CC(=O)O)NC1=O` [ET2154], the “homing of T lymphocytes to the MLN” value in series [1] (200 mg/kg single oral dose) was “significant and robust attenuation of homing to the MLN”. The “oral bioavailability / absorption (in words)” value in [2] (mouse, po) is recorded as “low oral bioavailability”.
For `CC(C)C[C@@H]1NC(=O)[C@H](Cc2c[nH]c3ccccc23)NC(=O)[C@@H]2CCCN2[C@H](C(=O)NC(C)(C)C)[C@H](C)NC(=O)[C@H]([C@@H](C)O)NC(=O)[C@H](CC(=O)O)NC1=O` [ET00762], the IC50 against CYP1A2 (human), against CYP2D6 (human), on CYP2C9 (human) and at CYP3A4 (human) was greater than 15 µM each time. The recovery at 5 hours, 1 microM amounted to 150% in [3] (CD-1, mouse) and 94% in series [4] (Sprague-Dawley, rat). Moreover, the fraction unbound at 5 h, 1 microM in series [3] (CD-1, mouse, % unbound (Cbuffer/Cplasma) Mouse plasma 1, replicate 1, 1 microM, 5 h) turned out to be 0.806; in series [3] (CD-1, mouse, % unbound (Cbuffer/Cplasma) Mouse plasma 2, replicate 2, 1 microM, 5 h) it was 0.744; in series [3] (CD-1, mouse, % unbound (Cbuffer/Cplasma) Mouse plasma 3, replicate 3, 1 microM, 5 h), 0.757; in series [3] (CD-1, mouse, % unbound (Cbuffer/Cplasma) Mouse plasma Average, average of 3 replicates), 0.769; in series [4] (Sprague-Dawley, rat, % unbound (Cbuffer/Cplasma) Rat plasma 1, replicate 1, 1 microM, 5 h) it was 0.833; in series [4] (Sprague-Dawley, rat, % unbound (Cbuffer/Cplasma) Rat plasma 2, replicate 2, 1 microM, 5 h), 0.761. Moreover, the fraction unbound at 5 h, 1 microM was determined as 0.702 in [4] (Sprague-Dawley, rat, % unbound (Cbuffer/Cplasma) Rat plasma 3, replicate 3, 1 microM, 5 h) and 0.765 in series [4] (Sprague-Dawley, rat, % unbound (Cbuffer/Cplasma) Rat plasma Average, average of 3 replicates). The “Control buffer/Buffer at 0.1 uM Cdonor/Creceiver” value (“Control buffer/Buffer” for short) in series [3] amounted to 79%. In series [3] (buffer/buffer equilibrium dialysis control (HTDialysis)), this compound gave a recovery at 5 hours, 0.1 uM of 99%.
For `Clc1ccc(COC(Cn2ccnc2)c2ccc(Cl)cc2Cl)c(Cl)c1` (stereo not shown) [Miconazole, reference compound], the midpoint of inhibition at CYP2C9 (human), the IC50, lay at 0.32 µM. In other words, the sub-micromolar range.
Turning to `CC(C)C[C@@H]1NC(=O)[C@H](Cc2ccc(-c3ccccc3)cc2)NC(=O)[C@@H]2CCCN2[C@H](C(=O)NC(C)(C)C)[C@H](C)NC(=O)[C@H]([C@@H](C)O)NC(=O)[C@H](CC(=O)O)NC1=O` [ET01813], the “% unbound (Cbuffer/Cplasma) Rat plasma 1” value is recorded as 15.8%, the “% unbound (Cbuffer/Cplasma) Rat plasma 2” value stood at 20.1%, the “% unbound (Cbuffer/Cplasma) Rat plasma 3” value was determined as 21.7% and the “% unbound (Cbuffer/Cplasma) Rat plasma Average” value is recorded as 19.2%. The compound further yielded an IC50 at CYP1A2 greater than 15 µM. The compound further registered a half-inhibitory concentration (IC50) on CYP2D6 greater than 15 µM. This compound came in with an IC50 at CYP2C9 greater than 15 µM. For the same compound, the IC50 against CYP3A4 was greater than 15 µM. Further, the “Control buffer/Buffer” value in [3] stood at 94%. Besides, in series [5], the “% unbound (Cbuffer/Cplasma) Mouse plasma 1” value came out at 24.7%, the “% unbound (Cbuffer/Cplasma) Mouse plasma 2” value was 22.2%, the “% unbound (Cbuffer/Cplasma) Mouse plasma 3” value is listed as 18.8% and the “% unbound (Cbuffer/Cplasma) Mouse plasma Average” value is 21.9%. For the same compound, the “% recovery” value in series [4] came out at 89%. In series [2] (male, CD-1, mouse, iv, 5 mg/kg), this compound registered a CLs of 114.8 mL/min/kg. Also, in [2] (mouse), the calculated oral bioavailability is listed as roughly 1% and the terminal half-life was roughly 2 h. Further, the tmax in [2] (mouse, po, 40 mg/kg) was 5 min.
As to `CC(C)C[C@@H]1NC(=O)[C@H](Cc2ccccc2)NC(=O)[C@@H]2CCCN2[C@H](C(=O)NC(C)(C)C)[C@H](C)NC(=O)[C@H]([C@@H](C)O)NC(=O)[C@H](CC(=O)O)NC1=O` [ET01792], the “% unbound (Cbuffer/Cplasma) Rat plasma 1” value is 82.9%, the “% unbound (Cbuffer/Cplasma) Rat plasma 2” value is listed as 77.3%, the “% unbound (Cbuffer/Cplasma) Rat plasma 3” value amounted to 79.5% and the “% unbound (Cbuffer/Cplasma) Rat plasma Average” value came to 79.9%. The compound also showed an IC50 against CYP1A2 greater than 15 µM. The same compound gave an IC50 against CYP2D6 greater than 15 µM. On CYP2C9, this compound displayed an IC50 greater than 15 µM. In addition, at CYP3A4, the IC50 was greater than 15 µM. Also, the “homing of T lymphocytes to the MLN” value in series [1] (100 mg/kg single oral dose) is recorded as “significant reduction of homing to the MLN”. Moreover, in series [3], the “Control buffer/Buffer” value was found to be 80%. Besides, in series [3] (mouse plasma dialysis), the “% recovery” value worked out at 130%. Further, in [5], the “% unbound (Cbuffer/Cplasma) Mouse plasma 1” value is listed as 64.8%, the “% unbound (Cbuffer/Cplasma) Mouse plasma 2” value worked out at 52.9%, the “% unbound (Cbuffer/Cplasma) Mouse plasma 3” value was 67.9% and the “% unbound (Cbuffer/Cplasma) Mouse plasma Average” value worked out at 61.9%. The “% recovery” value in series [4] was 97%. For the same compound, the “oral bioavailability / absorption (in words)” value in series [2] (mouse, po) is “high oral bioavailability”. In [2] (mouse, po, 40 mg/kg), the “exposure (AUC0-tlast)” value amounted to 589 ng·h/mL. Moreover, in series [2] (mouse, po, 48 mg/kg), the “maximum plasma concentration after the first dose” value was ~1,600 ng/ml.
Take `CC(C)C[C@H]1C(=O)N[C@@H](C(C)C)C(=O)N[C@@H](Cc2ccccc2)C(=O)N[C@@H](C)[C@@H](C(=O)NC(C)(C)C)N2CCC[C@H]2C(=O)N[C@@H]([C@@H](C)O)C(=O)N1C` [ET00328-01]: the IC50 against CYP1A2 (human) was greater than 15 µM; on CYP2D6 (human), greater than 15 µM; at CYP2C9 (human), greater than 15 µM; against CYP3A4 (human), 9.7 µM.

As usually defined, the IC50 is the concentration that inhibits the measured activity by half. A high value points to weaker potency in that assay. For orientation: fraction unbound means free concentration divided by total concentration.
